This is an account of results in PMC7034945 (RSC Advances, 2019).

This test has as its system HIV-1 NL4-3 virus. Briefly: Anti-HIV-1 activity, multicycle assay with HIV-1 NL4-3 in TZM-bl cells. The test is classed as cell-based. Conditions: for EC50: Human immunodeficiency virus 1, NL43, TZM-bl; for SI (selectivity index, ratio of CC50/EC50) / anti-HIV-1 activity (in words): TZM-bl cells; for anti-HIV-1 activity (in words): at the test concentration.

With `COc1ccc(N(C)C(=O)[C@H](Cc2cc(F)cc(F)c2)NC(=O)c2cn(-c3ccc4c(c3)OCO4)nn2)cc1` [I-8q, (S)-1-(Benzo[d][1,3]dioxol-5-yl)-N-(3-(3,5-difluorophenyl)-1-((4-methoxyphenyl)(methyl)amino)-1-oxopropan-2-yl)-1H-1,2,3-triazole-4-carboxamide], the EC50 was found to be 9.15 ± 2.8 µM. The “SI (selectivity index, ratio of CC50/EC50)” value (Table 1) is listed as more than 2.04.
`COc1ccc(N(C)C(=O)[C@H](Cc2cc(F)cc(F)c2)NC(=O)c2cn(Cc3ccc(S(N)(=O)=O)cc3)nn2)cc1` [I-8r, (S)-N-(3-(3,5-Difluorophenyl)-1-((4-methoxyphenyl)(methyl)amino)-1-oxopropan-2-yl)-1-(4-sulfamoylbenzyl)-1H-1,2,3-triazole-4-carboxamide] showed an EC50 of 12.3 ± 2.39 µM. For the same molecule, the “SI (selectivity index, ratio of CC50/EC50)” value (Table 1) is more than 1.39.
For the molecule `COc1ccc(N(C)C(=O)[C@H](Cc2ccccc2)NC(=O)c2cccc(-c3cn(Cc4ccc(C(N)=O)cc4)nn3)c2)cc1` [III-15d, (S)-3-(1-(4-Carbamoylbenzyl)-1H-1,2,3-triazol-4-yl)-N-(1-((4-methoxyphenyl)(methyl)amino)-1-oxo-3-phenylpropan-2-yl)benzamide], the response was half-maximal at 26.2 ± 7.3 µM (EC50) and the “anti-HIV-1 activity (in words)” value is listed as “exhibited anti-HIV-1 activity at the test concentration”. The “SI (selectivity index, ratio of CC50/EC50)” value (Table 2) is listed as more than 1.30.
Consider `COc1ccc(N(C)C(=O)[C@H](Cc2cc(F)cc(F)c2)NC(=O)c2cn(Cc3ccc(C(N)=O)cc3)nn2)cc1` [I-8s, (S)-1-(4-Carbamoylbenzyl)-N-(3-(3,5-difluorophenyl)-1-((4-methoxyphenyl)(methyl)amino)-1-oxopropan-2-yl)-1H-1,2,3-triazole-4-carboxamide], for which the EC50 is 11.1 ± 2 µM. Further, for the setting “Table 1”, the “SI (selectivity index, ratio of CC50/EC50)” value was more than 1.64.
For the molecule `COc1ccc(N(C)C(=O)[C@H](Cc2ccccc2)NC(=O)c2cccc(-c3cn(Cc4ccc(S(N)(=O)=O)cc4)nn3)c2)cc1` [III-15f, (S)-N-(1-((4-Methoxyphenyl)(methyl)amino)-1-oxo-3-phenylpropan-2-yl)-3-(1-(4-sulfamoylbenzyl)-1H-1,2,3-triazol-4-yl)benzamide], the EC50 was more than 32 µM.
“(S)-N-(1-((4-Methoxyphenyl)(methyl)amino)-1-oxo-3-phenylpropan-2-yl)-3-(1-(naphthalen-1-ylmethyl)-1H-1,2,3-triazol-4-yl)benzamide [III-15l]”: the “anti-HIV-1 activity (in words)” value is “lost anti-HIV-1 activity completely”.
With `COc1ccc(N(C)C(=O)[C@H](Cc2ccccc2)NC(=O)c2cccc(-c3cn(Cc4ccccc4[N+](=O)[O-])nn3)c2)cc1` [III-15a, (S)-N-(1-((4-Methoxyphenyl)(methyl)amino)-1-oxo-3-phenylpropan-2-yl)-3-(1-(2-nitrobenzyl)-1H-1,2,3-triazol-4-yl)benzamide], the EC50 is more than 33.9 µM.
On the same count and under the same terms, the result for `COc1ccc(N(C)C(=O)[C@H](Cc2ccccc2)NC(=O)c2cccc(-c3cn(Cc4cccc5ccccc45)nn3)c2)cc1` [III-15k, (S)-N-(1-((4-Methoxyphenyl)(methyl)amino)-1-oxo-3-phenylpropan-2-yl)-3-(1-(naphthalen-1-ylmethyl)-1H-1,2,3-triazol-4-yl)benzamide] reads more than 33.6 µM; that for `COc1ccc(N(C)C(=O)[C@H](Cc2cc(F)cc(F)c2)NC(=O)c2cccc(-c3cn(Cc4cccc([N+](=O)[O-])c4)nn3)c2)cc1` [II-10b, (S)-N-(3-(3,5-Difluorophenyl)-1-((4-methoxyphenyl)(methyl)amino)-1-oxopropan-2-yl)-3-(1-(3-nitrobenzyl)-1H-1,2,3-triazol-4-yl)benzamide], more than 35.5 µM; that for `COc1ccc(N(C)C(=O)[C@H](Cc2ccccc2)NC(=O)c2cccc(-c3cn(CCCc4ccccc4)nn3)c2)cc1` [III-15g, (S)-N-(1-((4-Methoxyphenyl)(methyl)amino)-1-oxo-3-phenylpropan-2-yl)-3-(1-(3-phenylpropyl)-1H-1,2,3-triazol-4-yl)benzamide], more than 34.9 µM.

The EC50 is the concentration at which the effect is half-maximal. Read a low EC50 as a more potent agent.
